Test results reported in ChEMBL document CHEMBL3779836, “Inhibition of Histone Demethylases Offers a Novel and Promising Approach for the Treatment of Cancer and Other Diseases” (ACS Med Chem Lett, 2016).

Columns and labels:
[1] = molecular target: T1, Lysine-specific demethylase 4C (Homo sapiens, UniProt Q9H3R0); assay: Inhibition of human KDM4C preincubated for 10 mins followed by substrate addition by AlphaLISA assay
T1 sequence (Q9H3R0 whole entry): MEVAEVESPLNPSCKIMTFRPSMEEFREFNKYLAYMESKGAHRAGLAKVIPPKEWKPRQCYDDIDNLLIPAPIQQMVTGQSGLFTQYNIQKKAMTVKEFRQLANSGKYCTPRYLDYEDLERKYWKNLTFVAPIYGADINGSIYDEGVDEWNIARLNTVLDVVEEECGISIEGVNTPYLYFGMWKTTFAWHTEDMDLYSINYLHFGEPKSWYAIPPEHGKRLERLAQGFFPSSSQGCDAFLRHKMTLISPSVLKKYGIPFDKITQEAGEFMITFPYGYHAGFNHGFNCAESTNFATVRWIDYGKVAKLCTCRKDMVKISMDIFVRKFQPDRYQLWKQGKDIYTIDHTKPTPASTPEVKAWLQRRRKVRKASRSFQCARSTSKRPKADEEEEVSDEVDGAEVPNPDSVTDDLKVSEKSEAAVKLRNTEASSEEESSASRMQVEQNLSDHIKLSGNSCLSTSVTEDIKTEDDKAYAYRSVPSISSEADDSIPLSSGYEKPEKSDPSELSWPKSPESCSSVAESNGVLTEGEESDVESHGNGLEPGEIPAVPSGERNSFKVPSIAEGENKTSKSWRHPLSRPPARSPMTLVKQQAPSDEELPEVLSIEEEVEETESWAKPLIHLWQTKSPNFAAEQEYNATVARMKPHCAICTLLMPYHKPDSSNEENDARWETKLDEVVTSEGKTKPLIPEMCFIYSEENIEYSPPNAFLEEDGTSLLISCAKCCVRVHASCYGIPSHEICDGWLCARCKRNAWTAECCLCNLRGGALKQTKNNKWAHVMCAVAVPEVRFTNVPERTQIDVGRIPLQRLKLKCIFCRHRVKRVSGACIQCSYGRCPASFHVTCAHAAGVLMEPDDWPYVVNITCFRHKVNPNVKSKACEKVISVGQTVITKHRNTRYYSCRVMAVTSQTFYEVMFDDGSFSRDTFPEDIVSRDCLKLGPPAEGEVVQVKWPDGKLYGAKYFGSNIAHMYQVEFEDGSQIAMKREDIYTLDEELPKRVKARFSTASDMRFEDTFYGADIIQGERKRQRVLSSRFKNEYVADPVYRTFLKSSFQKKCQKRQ

[2] = molecular target: T2, Lysine-specific demethylase 2B (Homo sapiens, UniProt Q8NHM5); assay: Inhibition of human KDM2B preincubated for 10 mins followed by substrate addition by AlphaLISA assay
T2 sequence (Q8NHM5 whole entry): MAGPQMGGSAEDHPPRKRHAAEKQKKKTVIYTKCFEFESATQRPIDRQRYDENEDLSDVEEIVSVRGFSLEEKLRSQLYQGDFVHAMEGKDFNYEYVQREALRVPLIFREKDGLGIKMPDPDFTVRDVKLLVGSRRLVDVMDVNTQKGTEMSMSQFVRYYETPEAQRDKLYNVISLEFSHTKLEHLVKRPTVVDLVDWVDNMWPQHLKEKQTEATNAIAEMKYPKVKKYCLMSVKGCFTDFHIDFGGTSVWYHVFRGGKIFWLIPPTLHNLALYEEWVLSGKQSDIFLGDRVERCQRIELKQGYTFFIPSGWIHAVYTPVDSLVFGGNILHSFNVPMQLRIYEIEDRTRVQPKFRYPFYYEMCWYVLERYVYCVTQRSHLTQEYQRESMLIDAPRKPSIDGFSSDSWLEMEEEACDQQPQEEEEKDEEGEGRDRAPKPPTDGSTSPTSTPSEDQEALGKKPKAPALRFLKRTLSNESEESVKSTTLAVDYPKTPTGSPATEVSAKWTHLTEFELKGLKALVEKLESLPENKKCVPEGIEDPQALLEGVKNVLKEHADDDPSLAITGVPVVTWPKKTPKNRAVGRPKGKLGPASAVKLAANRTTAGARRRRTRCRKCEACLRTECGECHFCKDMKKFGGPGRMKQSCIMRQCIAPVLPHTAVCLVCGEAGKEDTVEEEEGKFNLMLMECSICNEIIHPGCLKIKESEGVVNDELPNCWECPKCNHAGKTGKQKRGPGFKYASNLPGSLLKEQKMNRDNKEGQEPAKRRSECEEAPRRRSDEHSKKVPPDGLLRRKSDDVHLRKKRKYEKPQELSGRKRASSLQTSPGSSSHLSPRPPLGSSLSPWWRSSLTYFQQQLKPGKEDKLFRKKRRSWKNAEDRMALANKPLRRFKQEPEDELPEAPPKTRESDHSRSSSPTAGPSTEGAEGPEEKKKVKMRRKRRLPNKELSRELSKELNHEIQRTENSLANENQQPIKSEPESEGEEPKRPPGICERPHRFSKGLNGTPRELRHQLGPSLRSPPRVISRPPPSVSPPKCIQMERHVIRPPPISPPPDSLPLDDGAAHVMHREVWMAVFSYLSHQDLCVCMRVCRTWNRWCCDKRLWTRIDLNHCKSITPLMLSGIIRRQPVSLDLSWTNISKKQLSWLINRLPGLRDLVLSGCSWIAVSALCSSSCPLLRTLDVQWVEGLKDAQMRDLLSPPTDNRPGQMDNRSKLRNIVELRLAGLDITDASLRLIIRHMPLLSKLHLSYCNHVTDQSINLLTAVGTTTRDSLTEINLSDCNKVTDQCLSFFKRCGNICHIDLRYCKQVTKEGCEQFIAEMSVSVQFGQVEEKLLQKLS

[3] = molecular target: Histone lysine demethylase PHF8 (Homo sapiens, UniProt Q9UPP1); assay: Inhibition of human PHF8 preincubated for 10 mins followed by substrate addition by AlphaLISA assay
[4] = molecular target: Lysine-specific demethylase 6A (Homo sapiens, UniProt O15550); assay: Inhibition of human KDM6A preincubated for 10 mins followed by substrate addition by AlphaLISA assay
[5] = molecular target: Lysine-specific demethylase 5B (Homo sapiens, UniProt Q9UGL1); assay: Inhibition of human KDM5B preincubated for 10 mins followed by substrate addition by AlphaLISA assay
Sequence of Lysine-specific demethylase 5B (Q9UGL1 whole entry): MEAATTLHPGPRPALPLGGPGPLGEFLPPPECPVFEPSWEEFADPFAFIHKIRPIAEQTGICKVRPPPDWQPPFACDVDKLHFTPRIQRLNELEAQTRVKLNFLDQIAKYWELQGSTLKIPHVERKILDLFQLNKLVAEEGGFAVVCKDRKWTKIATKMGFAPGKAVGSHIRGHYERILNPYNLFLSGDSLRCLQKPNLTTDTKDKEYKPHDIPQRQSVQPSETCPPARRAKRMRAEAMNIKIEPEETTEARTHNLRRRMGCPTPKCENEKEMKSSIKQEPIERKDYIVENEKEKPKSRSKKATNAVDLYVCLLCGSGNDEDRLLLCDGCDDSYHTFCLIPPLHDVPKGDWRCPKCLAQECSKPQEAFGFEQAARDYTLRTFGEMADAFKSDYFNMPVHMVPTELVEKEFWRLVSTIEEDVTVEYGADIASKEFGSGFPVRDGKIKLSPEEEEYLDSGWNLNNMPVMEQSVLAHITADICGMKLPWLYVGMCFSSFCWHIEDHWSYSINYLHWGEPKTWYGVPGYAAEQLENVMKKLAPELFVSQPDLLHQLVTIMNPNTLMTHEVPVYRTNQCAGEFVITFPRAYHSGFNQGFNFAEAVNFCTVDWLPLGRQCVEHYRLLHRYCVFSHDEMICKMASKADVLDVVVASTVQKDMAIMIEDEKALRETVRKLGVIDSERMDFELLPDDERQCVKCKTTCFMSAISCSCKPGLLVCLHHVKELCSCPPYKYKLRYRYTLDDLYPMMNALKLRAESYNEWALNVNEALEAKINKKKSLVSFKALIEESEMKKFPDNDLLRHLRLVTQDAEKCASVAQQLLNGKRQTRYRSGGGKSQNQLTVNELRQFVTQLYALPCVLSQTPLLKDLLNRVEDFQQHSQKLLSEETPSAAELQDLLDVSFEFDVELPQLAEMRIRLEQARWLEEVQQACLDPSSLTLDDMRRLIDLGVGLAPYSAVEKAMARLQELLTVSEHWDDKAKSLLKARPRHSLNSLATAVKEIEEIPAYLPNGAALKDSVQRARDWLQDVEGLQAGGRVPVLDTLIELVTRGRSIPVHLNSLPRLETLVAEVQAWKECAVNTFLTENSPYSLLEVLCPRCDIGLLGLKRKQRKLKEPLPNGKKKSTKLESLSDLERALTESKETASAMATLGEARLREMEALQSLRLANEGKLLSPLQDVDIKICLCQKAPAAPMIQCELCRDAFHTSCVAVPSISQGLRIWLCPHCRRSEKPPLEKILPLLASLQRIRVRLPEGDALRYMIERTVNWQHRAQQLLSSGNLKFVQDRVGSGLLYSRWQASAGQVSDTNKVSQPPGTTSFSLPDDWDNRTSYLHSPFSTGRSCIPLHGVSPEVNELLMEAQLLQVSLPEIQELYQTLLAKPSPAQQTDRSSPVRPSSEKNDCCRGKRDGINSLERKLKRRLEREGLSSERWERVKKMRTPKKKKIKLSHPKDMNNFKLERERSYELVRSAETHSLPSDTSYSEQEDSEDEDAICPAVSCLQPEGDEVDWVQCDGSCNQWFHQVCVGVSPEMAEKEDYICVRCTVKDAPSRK

Sequence of Lysine-specific demethylase 6A (O15550 whole entry): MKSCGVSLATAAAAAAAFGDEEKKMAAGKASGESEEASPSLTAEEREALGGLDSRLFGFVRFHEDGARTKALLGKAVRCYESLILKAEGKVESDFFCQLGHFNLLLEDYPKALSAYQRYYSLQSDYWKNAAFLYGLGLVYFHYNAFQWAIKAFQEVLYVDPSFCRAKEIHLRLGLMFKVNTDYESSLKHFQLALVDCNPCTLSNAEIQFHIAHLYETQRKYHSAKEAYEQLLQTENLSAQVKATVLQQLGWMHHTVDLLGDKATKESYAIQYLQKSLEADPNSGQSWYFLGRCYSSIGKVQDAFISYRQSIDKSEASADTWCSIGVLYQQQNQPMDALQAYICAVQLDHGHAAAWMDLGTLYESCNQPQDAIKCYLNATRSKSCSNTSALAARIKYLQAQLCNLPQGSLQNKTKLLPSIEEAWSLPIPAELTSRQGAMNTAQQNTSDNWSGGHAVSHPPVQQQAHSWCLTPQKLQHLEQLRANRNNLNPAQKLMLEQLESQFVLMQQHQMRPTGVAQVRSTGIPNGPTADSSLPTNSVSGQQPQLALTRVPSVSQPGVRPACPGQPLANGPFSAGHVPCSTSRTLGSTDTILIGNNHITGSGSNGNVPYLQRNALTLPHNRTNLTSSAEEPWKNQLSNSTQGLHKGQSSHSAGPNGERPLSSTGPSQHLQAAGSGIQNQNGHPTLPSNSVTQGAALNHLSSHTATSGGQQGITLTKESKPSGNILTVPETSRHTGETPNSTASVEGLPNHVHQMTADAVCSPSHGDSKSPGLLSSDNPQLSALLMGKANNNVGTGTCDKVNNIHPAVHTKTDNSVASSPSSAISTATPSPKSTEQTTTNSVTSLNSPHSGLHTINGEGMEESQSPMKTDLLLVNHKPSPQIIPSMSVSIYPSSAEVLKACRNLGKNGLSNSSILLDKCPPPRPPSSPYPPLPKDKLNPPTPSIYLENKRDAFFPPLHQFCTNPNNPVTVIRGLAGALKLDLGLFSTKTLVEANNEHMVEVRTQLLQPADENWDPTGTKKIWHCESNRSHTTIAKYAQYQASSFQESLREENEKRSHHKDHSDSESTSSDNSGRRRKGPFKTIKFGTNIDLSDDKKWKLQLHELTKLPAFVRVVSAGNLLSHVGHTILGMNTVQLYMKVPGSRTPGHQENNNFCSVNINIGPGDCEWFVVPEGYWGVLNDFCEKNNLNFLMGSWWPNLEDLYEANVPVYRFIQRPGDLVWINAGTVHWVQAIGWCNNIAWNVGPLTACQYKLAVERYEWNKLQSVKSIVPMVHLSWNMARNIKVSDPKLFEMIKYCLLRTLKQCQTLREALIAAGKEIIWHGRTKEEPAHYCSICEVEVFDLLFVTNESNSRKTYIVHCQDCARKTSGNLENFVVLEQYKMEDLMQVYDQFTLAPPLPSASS
Sequence of Histone lysine demethylase PHF8 (Q9UPP1 whole entry): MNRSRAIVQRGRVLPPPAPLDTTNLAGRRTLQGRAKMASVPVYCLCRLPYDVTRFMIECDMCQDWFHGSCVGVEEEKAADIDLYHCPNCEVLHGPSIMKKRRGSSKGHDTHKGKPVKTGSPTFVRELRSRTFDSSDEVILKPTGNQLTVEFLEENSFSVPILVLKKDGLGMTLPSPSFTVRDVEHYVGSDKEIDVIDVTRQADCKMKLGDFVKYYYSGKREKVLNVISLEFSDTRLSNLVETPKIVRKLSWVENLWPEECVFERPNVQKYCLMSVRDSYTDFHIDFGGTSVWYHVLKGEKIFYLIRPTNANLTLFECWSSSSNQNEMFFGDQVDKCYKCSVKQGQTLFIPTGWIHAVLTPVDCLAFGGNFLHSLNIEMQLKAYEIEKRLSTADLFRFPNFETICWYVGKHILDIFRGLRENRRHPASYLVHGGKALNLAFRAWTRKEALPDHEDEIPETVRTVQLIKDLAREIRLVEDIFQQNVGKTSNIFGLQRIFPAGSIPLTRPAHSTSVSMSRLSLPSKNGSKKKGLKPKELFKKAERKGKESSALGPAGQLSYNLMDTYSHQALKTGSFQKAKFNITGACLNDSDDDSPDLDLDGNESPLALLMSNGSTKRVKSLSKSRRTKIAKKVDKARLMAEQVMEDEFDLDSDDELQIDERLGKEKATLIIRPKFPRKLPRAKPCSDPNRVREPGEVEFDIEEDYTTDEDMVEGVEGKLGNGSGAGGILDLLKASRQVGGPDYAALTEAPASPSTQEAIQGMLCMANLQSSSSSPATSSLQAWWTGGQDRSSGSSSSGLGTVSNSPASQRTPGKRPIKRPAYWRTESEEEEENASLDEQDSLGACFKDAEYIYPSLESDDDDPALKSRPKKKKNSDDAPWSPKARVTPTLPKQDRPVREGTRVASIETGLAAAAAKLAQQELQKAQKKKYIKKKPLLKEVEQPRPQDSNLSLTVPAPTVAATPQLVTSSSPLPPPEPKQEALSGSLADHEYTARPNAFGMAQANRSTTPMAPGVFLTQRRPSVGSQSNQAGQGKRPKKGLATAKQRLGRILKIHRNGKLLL

Compound | IC50 [1] | IC50 [2] | IC50 [3] | IC50 [4] | IC50 [5]
C[C@H](c1ccccc1)N1CCC[C@H](CNCc2cc(C(=O)O)ccn2)C1=O | < 250 nM | < 250 nM | < 250 nM | > 2500 nM | < 250 nM
C[C@H](c1ccccc1)N1CC[C@@H](CNCc2cc(C(=O)O)ccn2)C1=O | < 250 nM | < 250 nM | < 250 nM | > 2500 nM | < 250 nM
COc1ccc([C@@H](C)N2CCC[C@@H](CNCc3cc(C(=O)O)ccn3)C2=O)cc1 | < 250 nM | < 250 nM | < 250 nM | > 2500 nM | < 250 nM

Next, values leading:

IC50 [1] | IC50 [2] | IC50 [3] | IC50 [4] | IC50 [5] | Compound
< 250 nM | > 2500 nM | < 250 nM | > 2500 nM | < 250 nM | Cc1cn2c(n1)CCN(Cc1cc(C(=O)O)ccn1)CC2
< 250 nM | < 250 nM | < 250 nM | > 2500 nM | < 250 nM | C[C@H](c1ccccc1)N1CCC[C@@H](CNCc2cc(C(=O)O)ccn2)C1=O
< 250 nM | < 250 nM | < 250 nM | > 2500 nM | < 250 nM | CCN1CCC(CNCc2cc(C(=O)O)ccn2)C1=O (stereo not given)
